Test results: patent publication US6049003A, “Azoamidine compound” (Wako Pure Chemical Industries, Ltd., priority 1998, dated 2000)

Legend:
[1] = emulsion polymerization of styrene with the azoamidine compound as initiator (Table 2); conditions: for Polymerization Rate(%): sodium dodecyl sulfate
Method: Distilled water (400 g), sodium dodecyl sulfate (4 g) and azoamidine compound (0.5 g) obtained in Example 1 were mixed with one another and were stirred to give a solution, and 200 g of styrene monomer was added thereto, followed by stirring to make emulsion. The resultant was subjected to polymerization reaction at 50° C. with stirring under nitrogen gas atmosphere. After the polymerization reaction was started, samplings of the reaction solution were conducted at predetermined intervals, and the samples were precipitated by methanol to recover the produced polymer, followed by drying. The polymerization rates at each sampling time were measured.
The same emulsion polymerization as Example 5 was conducted except for using a typical known azoamidine compound, of 2,2'-azobis(2-methylpropionamidine) dihydrochloride as a polymerization initiator.

[2] = solution polymerization of acrylamide with the azoamidine compound as initiator (Table 1); conditions: acrylamide in water, 50° C.
Method: Acrylamide (20 g) was dissolved in 380 g of distilled water and 0.01 g of the azoamidine compound obtained in Example 1 was added thereto as a polymerization initiator. The reaction solution was heated at 50° C. with stirring under nitrogen gas atmosphere to cause polymerization reaction. After the polymerization reaction was started, samplings of the reaction solution were conducted at predetermined intervals, and the samples were precipitated by methanol to recover the produced polymer, followed by drying. The polymerization rates at each sampling time were measured.
The same polymerization reaction as Example 4 was conducted except for using azoamidine compounds, in which an α-amino acid residue as introduced, of 2,2'-azobis(N-carboxymethyl-2-methylpropionamidine) [drawing 10] or 2,2'-azobis[N-(1-carboxyethyl)-2-methylpropionamidine] [drawing 11] as a polymerization initiator.

[3] = comparison of solubility in various kinds of solvents (Table 3); format: physicochemical
[4] = decomposition rate constant at 50° C. (Table 1); format: physicochemical
[5] = 10 hours half life temperature; format: physicochemical
[6] = 50° C., polymerization time 1 H
[7] = 50° C., polymerization time 1.5 H
[8] = 50° C., polymerization time 2 H
[9] = 50° C., polymerization time 3 H
[10] = 50° C., polymerization time 4 H
[11] = 50° C., polymerization time 5 H
[12] = 50° C., polymerization time 6 H

| SMILES | Polymerization Rate(%) [1, 6] | Polymerization Rate(%) [1, 7] | Polymerization Rate(%) [1, 8] | Polymerization Rate(%) [1, 9] | Polymerization Rate(%) [1, 10] | Polymerization Rate(%) [1, 11] | Polymerization Rate(%) [1, 12] | Polymerization Rate(%) ([2]; polymerization time 1 H) | Polymerization Rate(%) ([2]; polymerization time 1.5 H) | Polymerization Rate(%) ([2]; polymerization time 2 H) | Polymerization Rate(%) ([2]; polymerization time 3 H) | Polymerization Rate(%) ([2]; polymerization time 4 H) | Polymerization Rate(%) ([2]; polymerization time 5 H) | Polymerization Rate(%) ([2]; polymerization time 6 H) | solubility in Methanol (in words) ([3]; Methanol) | solubility in Water [3] | also measured |
| --- | --- | --- | --- | --- | --- | --- | --- | --- | --- | --- | --- | --- | --- | --- | --- | --- | --- |
| CC(C)(N=NC(C)(C)C(=N)N)C(=N)N.Cl.Cl [Reference Example 3, 2,2'-azobis(2-methylpropionamidine) dihydrochloride] | 32.0% | 37.1% | 69.9% | 88.4% | 91.4% | 93.1% | 92.2% |  |  |  |  |  |  |  |  |  | dead end phenomenon in emulsion polymerization ([1]; 50° C.): dead end phenomenon was observed; polymerization rate at 6 hour polymerization and later (in words) ([1]; 6 hours and later): reduced |
| CC(C)(N=NC(C)(C)C(=N)NCC(=O)O)C(=N)NCC(=O)O [Reference Example 1, 2,2'-azobis(N-carboxymethyl-2-methylpropionamidine)] |  |  |  |  |  |  |  | 15.8% | 21.2% | 25.0% | 32.5% | 37.2% | 38.3% | 41.2% | insoluble | 0.4% |  |
| CC(C)(N=NC(C)(C)C(=N)NCCC(=O)O)C(=N)NCCC(=O)O.O.O [Example 1, 2,2'-azobis[N-(2-carboxyethyl)-2-methylpropionamidine] dihydrate] | 25.2% | 51.0% | 74.3% | 89.2% | 93.5% | 94.4% | 95.4% | 6.7% | 22.3% | 34.2% | 53.3% | 64.8% | 70.6% | 74.7% |  | 10.0% | Decomposition Rate Constant at 50° C. [4]: 7.3e-06 s⁻¹; 10 hours half life temperature [5]: 57 °C; solubility in Methanol ([3]; Methanol): 36.9% |
| CC(NC(=N)C(C)(C)N=NC(C)(C)C(=N)NC(C)C(=O)O)C(=O)O (stereo not drawn) [Reference Example 2, 2,2'-azobis[N-(1-carboxyethyl)-2-methylpropionamidine]] |  |  |  |  |  |  |  | 19.0% | 24.2% | 28.8% | 33.8% | 38.5% | 46.3% | 47.1% | insoluble | 0.8% |  |
